“Also recorded” adds a separate entry of the source.

The target of one data set is T1, EGFR (Homo sapiens, UniProt P00533).
T1 construct: purchased Reaction Biology Corp
Kind of data set: HotSpot in vitro kinase assay, EGFR. Type of data set: biochemical. The note with it: for inhibition at 10 µM: single dose 10 µM compound, 10 µM ATP.

A further data set deals with T2, HER2 (Homo sapiens, UniProt P04626).
T2 construct: purchased Reaction Biology Corp
The data set is described as follows: HotSpot in vitro kinase assay, HER2. Type of data set: biochemical. Particulars: single dose 10 µM compound, 10 µM ATP.

A further data set has as its target T3, P38a/MAPK14 (Homo sapiens, UniProt Q16539).
T3 construct: purchased Reaction Biology Corp
Kind of data set: Kinase selectivity panel, P38a/MAPK14. The note with it: single dose 10 µM. Type of data set: biochemical.

The next data set deals with T4, c-MET (Homo sapiens, UniProt P08581).
T4 construct: purchased Reaction Biology Corp
T4 sequence (P08581 25-1390): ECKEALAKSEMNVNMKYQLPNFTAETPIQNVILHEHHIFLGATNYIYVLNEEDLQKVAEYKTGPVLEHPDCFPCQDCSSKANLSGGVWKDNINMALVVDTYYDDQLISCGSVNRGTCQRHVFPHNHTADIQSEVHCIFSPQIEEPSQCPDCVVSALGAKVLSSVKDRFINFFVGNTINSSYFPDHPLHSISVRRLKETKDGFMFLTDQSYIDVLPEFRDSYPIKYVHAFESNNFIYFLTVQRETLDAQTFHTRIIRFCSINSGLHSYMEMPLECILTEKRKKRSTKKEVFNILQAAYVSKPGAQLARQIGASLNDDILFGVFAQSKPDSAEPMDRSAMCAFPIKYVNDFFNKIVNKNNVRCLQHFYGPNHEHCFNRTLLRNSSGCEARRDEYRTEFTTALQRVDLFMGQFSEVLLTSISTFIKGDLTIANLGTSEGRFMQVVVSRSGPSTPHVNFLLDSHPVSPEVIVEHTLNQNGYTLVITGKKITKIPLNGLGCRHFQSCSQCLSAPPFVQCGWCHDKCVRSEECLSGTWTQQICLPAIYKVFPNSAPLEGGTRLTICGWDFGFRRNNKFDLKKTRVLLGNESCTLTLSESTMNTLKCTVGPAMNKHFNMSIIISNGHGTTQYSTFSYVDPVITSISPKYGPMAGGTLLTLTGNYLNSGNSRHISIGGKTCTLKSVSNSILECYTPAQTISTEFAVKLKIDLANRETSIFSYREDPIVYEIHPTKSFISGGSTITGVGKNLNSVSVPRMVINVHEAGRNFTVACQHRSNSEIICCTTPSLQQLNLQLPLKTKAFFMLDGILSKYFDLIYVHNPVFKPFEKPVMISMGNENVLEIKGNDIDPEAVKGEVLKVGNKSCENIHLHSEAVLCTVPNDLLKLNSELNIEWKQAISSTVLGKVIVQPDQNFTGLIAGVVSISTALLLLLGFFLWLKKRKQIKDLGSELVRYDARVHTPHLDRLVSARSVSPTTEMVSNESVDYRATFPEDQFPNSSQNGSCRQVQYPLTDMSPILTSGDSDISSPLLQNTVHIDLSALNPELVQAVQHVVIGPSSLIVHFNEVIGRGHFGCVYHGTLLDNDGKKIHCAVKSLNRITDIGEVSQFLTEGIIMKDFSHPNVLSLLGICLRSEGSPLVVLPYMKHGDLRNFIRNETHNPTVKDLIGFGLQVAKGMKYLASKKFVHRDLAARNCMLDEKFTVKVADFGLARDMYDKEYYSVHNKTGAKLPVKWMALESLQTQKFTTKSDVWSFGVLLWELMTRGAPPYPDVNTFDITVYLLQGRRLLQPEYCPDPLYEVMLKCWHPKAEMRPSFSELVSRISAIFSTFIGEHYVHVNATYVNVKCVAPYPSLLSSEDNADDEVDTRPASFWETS
The data set is described as follows: Kinase selectivity panel, c-MET. Type of data set: biochemical. The note with it: single dose 10 µM.

The target in the next data set is T5, CDK2/cyclin A (Homo sapiens, UniProt P24941).
T5 construct: purchased Reaction Biology Corp
The data set is described as follows: Kinase selectivity panel, CDK2/cyclin A. Type of data set: biochemical. Particulars: single dose 10 µM.

The next data set addresses T6, KDR/VEGFR2 (Homo sapiens, UniProt P35968).
T6 construct: purchased Reaction Biology Corp
Kind of data set: Kinase selectivity panel, KDR/VEGFR2. Type of data set: biochemical. The note with it: single dose 10 µM.

The target of the next data set is T7, FGFR1 (Homo sapiens, UniProt P11362).
T7 construct: purchased Reaction Biology Corp
T7 sequence (P11362 22-822): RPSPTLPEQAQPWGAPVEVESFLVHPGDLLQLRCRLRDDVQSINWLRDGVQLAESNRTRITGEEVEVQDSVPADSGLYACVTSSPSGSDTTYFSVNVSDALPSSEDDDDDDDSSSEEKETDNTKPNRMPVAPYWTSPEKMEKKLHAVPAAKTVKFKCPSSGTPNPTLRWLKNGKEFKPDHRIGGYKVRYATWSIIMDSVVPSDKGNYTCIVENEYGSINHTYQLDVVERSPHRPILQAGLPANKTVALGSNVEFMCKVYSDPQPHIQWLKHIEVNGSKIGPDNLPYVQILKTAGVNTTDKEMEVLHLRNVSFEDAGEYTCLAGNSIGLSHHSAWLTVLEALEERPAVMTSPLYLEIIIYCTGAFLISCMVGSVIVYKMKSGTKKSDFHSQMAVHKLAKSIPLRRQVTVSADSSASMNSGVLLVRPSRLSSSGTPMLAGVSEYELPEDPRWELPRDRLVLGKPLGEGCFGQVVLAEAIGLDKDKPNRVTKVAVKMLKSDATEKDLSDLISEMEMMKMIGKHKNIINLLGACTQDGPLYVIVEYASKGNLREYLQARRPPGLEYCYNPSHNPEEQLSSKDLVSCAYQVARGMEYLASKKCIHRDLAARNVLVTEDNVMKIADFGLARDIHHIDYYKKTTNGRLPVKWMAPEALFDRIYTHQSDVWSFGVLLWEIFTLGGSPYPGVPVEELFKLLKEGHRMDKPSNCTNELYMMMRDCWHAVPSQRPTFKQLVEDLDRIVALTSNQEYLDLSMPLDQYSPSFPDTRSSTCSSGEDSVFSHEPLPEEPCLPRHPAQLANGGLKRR
Kind of data set: Kinase selectivity panel, FGFR1. The note with it: single dose 10 µM. Type of data set: biochemical.

T2 sequence (P04626 23-1255): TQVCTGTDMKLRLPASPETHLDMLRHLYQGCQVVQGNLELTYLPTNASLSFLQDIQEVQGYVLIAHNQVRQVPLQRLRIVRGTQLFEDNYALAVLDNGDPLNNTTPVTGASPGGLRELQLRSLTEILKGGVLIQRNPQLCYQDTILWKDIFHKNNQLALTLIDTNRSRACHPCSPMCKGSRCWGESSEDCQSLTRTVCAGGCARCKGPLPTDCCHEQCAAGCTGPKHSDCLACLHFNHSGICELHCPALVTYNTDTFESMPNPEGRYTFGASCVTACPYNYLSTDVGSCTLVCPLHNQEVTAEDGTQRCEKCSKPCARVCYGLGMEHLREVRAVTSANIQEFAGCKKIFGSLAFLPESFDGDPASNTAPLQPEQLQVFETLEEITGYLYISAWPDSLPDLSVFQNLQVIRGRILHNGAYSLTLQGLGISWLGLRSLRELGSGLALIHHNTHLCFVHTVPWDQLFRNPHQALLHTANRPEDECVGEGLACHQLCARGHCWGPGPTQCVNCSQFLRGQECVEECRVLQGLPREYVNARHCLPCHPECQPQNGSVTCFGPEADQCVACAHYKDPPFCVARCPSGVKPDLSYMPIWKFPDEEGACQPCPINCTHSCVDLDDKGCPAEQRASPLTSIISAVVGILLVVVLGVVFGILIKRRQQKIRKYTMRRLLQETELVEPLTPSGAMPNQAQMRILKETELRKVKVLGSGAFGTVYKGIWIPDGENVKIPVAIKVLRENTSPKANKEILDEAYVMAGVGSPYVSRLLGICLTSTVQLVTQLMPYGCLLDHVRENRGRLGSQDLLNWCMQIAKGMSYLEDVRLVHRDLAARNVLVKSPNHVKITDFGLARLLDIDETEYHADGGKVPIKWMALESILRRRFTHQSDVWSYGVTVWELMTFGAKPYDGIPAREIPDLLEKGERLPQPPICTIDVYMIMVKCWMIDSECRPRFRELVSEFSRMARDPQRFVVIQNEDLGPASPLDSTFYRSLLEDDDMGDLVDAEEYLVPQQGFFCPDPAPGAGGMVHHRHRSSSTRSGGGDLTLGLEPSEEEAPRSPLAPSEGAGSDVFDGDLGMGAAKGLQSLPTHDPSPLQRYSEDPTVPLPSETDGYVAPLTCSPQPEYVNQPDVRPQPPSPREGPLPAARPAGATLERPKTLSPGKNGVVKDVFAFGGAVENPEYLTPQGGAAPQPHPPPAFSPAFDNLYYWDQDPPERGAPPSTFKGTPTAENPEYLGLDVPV
T6 sequence (P35968 20-1356): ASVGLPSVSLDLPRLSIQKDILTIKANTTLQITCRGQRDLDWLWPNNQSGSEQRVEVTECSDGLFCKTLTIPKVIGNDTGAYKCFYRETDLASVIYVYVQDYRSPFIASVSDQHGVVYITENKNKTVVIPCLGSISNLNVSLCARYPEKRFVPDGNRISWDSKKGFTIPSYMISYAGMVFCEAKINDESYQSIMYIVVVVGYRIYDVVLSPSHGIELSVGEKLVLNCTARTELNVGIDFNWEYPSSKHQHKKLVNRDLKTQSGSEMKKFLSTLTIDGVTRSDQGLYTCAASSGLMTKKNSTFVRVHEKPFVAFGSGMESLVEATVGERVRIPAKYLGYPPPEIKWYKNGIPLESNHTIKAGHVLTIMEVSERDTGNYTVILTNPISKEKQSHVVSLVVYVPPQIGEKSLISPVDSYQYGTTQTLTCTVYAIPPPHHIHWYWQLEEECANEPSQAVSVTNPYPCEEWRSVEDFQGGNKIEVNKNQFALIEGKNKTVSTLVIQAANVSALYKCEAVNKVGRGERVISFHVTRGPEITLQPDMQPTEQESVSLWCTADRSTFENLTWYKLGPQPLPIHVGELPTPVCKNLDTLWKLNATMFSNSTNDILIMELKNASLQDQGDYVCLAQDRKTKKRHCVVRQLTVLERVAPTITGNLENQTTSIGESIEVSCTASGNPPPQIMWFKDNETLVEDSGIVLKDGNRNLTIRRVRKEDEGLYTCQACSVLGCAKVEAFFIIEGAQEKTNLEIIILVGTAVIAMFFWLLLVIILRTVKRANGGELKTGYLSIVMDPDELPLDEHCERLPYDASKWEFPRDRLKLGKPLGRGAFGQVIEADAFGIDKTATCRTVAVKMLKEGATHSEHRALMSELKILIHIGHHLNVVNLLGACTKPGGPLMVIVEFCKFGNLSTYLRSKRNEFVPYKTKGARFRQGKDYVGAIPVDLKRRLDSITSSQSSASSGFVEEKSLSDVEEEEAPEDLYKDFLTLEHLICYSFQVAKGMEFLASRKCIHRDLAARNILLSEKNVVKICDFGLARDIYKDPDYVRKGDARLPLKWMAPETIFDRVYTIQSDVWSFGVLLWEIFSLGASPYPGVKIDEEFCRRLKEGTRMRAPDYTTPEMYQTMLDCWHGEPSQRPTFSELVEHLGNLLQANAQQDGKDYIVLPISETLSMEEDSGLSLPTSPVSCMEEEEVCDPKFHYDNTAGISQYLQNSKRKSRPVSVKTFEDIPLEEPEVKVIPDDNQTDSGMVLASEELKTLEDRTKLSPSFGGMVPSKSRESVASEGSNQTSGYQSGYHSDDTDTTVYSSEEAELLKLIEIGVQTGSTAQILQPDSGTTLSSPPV
T3 sequence (Q16539 whole entry): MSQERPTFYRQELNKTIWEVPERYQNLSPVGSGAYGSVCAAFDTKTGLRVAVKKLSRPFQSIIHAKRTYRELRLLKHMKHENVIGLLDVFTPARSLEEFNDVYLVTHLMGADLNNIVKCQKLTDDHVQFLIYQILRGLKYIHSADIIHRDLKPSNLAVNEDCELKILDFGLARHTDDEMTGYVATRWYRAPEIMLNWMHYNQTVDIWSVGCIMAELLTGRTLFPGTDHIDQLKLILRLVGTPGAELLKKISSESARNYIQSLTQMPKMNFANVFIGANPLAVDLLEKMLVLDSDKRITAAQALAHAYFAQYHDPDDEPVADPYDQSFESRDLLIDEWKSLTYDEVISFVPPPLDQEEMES

`COc1cc2ncnc(Nc3ccc(C#N)cc3)c2cc1OCCCCCCn1ccnc1[N+](=O)[O-]` [Compound 6h, 4-((7-Methoxy-6-((6-(2-nitro-1H-imidazol-1-yl)hexyl)oxy)quinazolin-4-yl)amino)benzonitrile]: the melting point was in the range of 191 to 192 °C. For the same compound, at EGFR, the inhibition at 10 µM amounted to 94.7%. Besides, at HER2, the inhibition at 10 µM is 47.3%.
The matching figures for `COc1cc2ncnc(Nc3ccc(C#N)cc3)c2cc1OCCCCn1ccnc1[N+](=O)[O-]` [Compound 6f, 4-((7-Methoxy-6-(4-(2-nitro-1H-imidazol-1-yl)butoxy)quinazolin-4-yl)amino)benzonitrile]: 200 to 201 °C, 76.5% and 11.7%.
The matching figures for `COc1cc2ncnc(Nc3ccc4ncccc4c3)c2cc1OCCCCn1ccnc1[N+](=O)[O-]` [Compound 6b, 7-Methoxy-6-(4-(2-nitro-1H-imidazol-1-yl)butoxy)-N-(quinolin-6-yl)quinazolin-4-amine]: 201 to 202 °C, 99.3% and 78%.
In turn, `COc1cc2ncnc(Nc3ccc4ncccc4c3)c2cc1OCCCCCn1ccnc1[N+](=O)[O-]` [Compound 6c, 7-Methoxy-6-((5-(2-nitro-1H-imidazol-1-yl)pentyl)oxy)-N-(quinolin-6-yl)quinazolin-4-amine] returned a melting point of 194 to 195 °C. For the same compound, on EGFR, the inhibition at 10 µM was 99.3%. Also, at HER2, the inhibition at 10 µM stood at 90%.
Take `COc1cc2ncnc(Nc3ccc(C#N)cc3)c2cc1OCCCCCn1ccnc1[N+](=O)[O-]` [Compound 6g, 4-((7-Methoxy-6-((5-(2-nitro-1H-imidazol-1-yl)pentyl)oxy)quinazolin-4-yl)amino)benzonitrile]: the melting point fell in the range of 196 to 197 °C. Moreover, the inhibition at 10 µM against EGFR was 91.8%. Also, the inhibition at 10 µM at HER2 was 43.1%.
The matching figures for `COc1cc2ncnc(Nc3ccc(C#N)cc3)c2cc1OCCCn1ccnc1[N+](=O)[O-]` [Compound 6e, 4-((7-Methoxy-6-(3-(2-nitro-1H-imidazol-1-yl)propoxy)quinazolin-4-yl)amino)benzonitrile]: 245 to 246 °C, 67.3% and 8.78%.
The like results for `COc1cc2ncnc(Nc3ccc4ncccc4c3)c2cc1OCCCn1ccnc1[N+](=O)[O-]` [Compound 6a, 7-Methoxy-6-(3-(2-nitro-1H-imidazol-1-yl)propoxy)-N-(quinolin-6-yl)quinazolin-4-amine] were, in that order, 249 to 250 °C, 98.8% and 74.7%.
In the case of `COc1cc2ncnc(Nc3ccc(OCc4ccccn4)c(Cl)c3)c2cc1OCCCCCCn1ccnc1[N+](=O)[O-]` [Compound 6l, N-(3-Chloro-4-(pyridin-2-ylmethoxy)phenyl)-7-methoxy-6-((6-(2-nitro-1H-imidazol-1-yl)hexyl)oxy)quinazolin-4-amine], the melting point was in the range of 191 to 192 °C. For the same compound, the inhibition at 10 µM on EGFR came out at 98.6%. Moreover, on HER2, the inhibition at 10 µM was determined as 89%.
The like results for `COc1cc2ncnc(Nc3ccc4ncccc4c3)c2cc1OCCCCCCn1ccnc1[N+](=O)[O-]` [Compound 6d, 7-Methoxy-6-((6-(2-nitro-1H-imidazol-1-yl)hexyl)oxy)-N-(quinolin-6-yl)quinazolin-4-amine] were, in that order, 176 to 177 °C, 99.1% and 79.7%.
For `COc1cc2ncnc(Nc3ccc(OCc4ccccn4)c(Cl)c3)c2cc1OCCCCn1ccnc1[N+](=O)[O-]` [Compound 6j, N-(3-Chloro-4-(pyridin-2-ylmethoxy)phenyl)-7-methoxy-6-(4-(2-nitro-1H-imidazol-1-yl)butoxy)quinazolin-4-amine], the IC50 at EGFR (10-dose assay, 3-fold serial dilution starting at 10 µM) worked out at 1.8 nM. On EGFR (ratio of EGFR IC50 values), the “fold more potent than lapatinib over EGFR” value is 6 fold and the “fold more potent than staurosporine over EGFR” value was 50 fold. Also, the inhibition at 10 µM against EGFR was determined as 99%. For the same compound, on P38a/MAPK14, the “% Kinase Inhibition at 10 µM P38a/MAPK14” value is reported as “almost no inhibitory activity; also recorded: poor to weak inhibitory activity” and the inhibition at 10 µM was -33.3%. In addition, at c-MET, the “% Kinase Inhibition at 10 µM c-MET” value was “almost no inhibitory activity; also recorded: poor to weak inhibitory activity” and the inhibition at 10 µM is 19.3%. Also, the inhibition at 10 µM at HER2 came out at 96.7%. Further, at CDK2/cyclin A, the “% Kinase Inhibition at 10 µM CDK2/cyclin A” value is “almost no inhibitory activity; also recorded: poor to weak inhibitory activity” and the inhibition at 10 µM is -0.83%. Moreover, on KDR/VEGFR2, the “% Kinase Inhibition at 10 µM KDR/VEGFR2” value was “almost no inhibitory activity; also recorded: poor to weak inhibitory activity” and the inhibition at 10 µM was determined as 10.3%. Moreover, on FGFR1, the “% Kinase Inhibition at 10 µM FGFR1” value is on record as “almost no inhibitory activity; also recorded: poor to weak inhibitory activity” and the inhibition at 10 µM amounted to 13.9%.
`COc1cc2ncnc(Nc3ccc(OCc4ccccn4)c(Cl)c3)c2cc1OCCCn1ccnc1[N+](=O)[O-]` [Compound 6i, N-(3-Chloro-4-(pyridin-2-ylmethoxy)phenyl)-7-methoxy-6-(3-(2-nitro-1H-imidazol-1-yl)propoxy)quinazolin-4-amine] came in with a melting point of 184 to 185 °C. Besides, the inhibition at 10 µM against EGFR stood at 97.7%. For the same compound, the inhibition at 10 µM against HER2 is 87.2%.
On to `COc1cc2ncnc(Nc3ccc(OCc4ccccn4)c(Cl)c3)c2cc1OCCCCCn1ccnc1[N+](=O)[O-]` [Compound 6k, N-(3-Chloro-4-(pyridin-2-ylmethoxy)phenyl)-7-methoxy-6-((5-(2-nitro-1H-imidazol-1-yl)pentyl)oxy)quinazolin-4-amine], for which the melting point fell in the range of 158 to 159 °C. For the same compound, the inhibition at 10 µM on EGFR was found to be 98.6%. Further, the inhibition at 10 µM at HER2 was determined as 91.2%.
